Assay [1] concerns the target T1, EP3 membrane (EP3 receptor) (Homo sapiens, UniProt P43115).
T1 construct: purchased Millipore HTS092M
T1 sequence (P43115 1-390): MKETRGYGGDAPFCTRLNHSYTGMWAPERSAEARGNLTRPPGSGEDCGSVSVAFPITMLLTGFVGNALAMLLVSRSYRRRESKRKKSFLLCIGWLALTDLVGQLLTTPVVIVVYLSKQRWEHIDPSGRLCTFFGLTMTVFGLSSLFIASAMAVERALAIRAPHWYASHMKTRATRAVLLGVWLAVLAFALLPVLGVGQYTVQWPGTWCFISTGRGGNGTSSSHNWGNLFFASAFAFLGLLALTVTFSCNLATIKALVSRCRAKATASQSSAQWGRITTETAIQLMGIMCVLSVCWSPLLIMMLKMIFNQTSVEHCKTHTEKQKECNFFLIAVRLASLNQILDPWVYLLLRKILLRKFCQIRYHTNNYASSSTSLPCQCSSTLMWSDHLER
Put plainly: [3H]-PGE2 binding; EP3 competition binding (SPA). The method, boiled down:
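SPA competition at room temperature, 2 h: EP3 membranes 2 μg/well, 2 nM [3H]-PGE2, 0.1% DMSO, in Tris/MgCl2/EDTA buffer pH 7.4. Compounds in 1:3 serial dilution; scintillation read; Ki by one-site nonlinear fit.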

For assay [2], the target named is T2, CHO cells over-expressing the EP3 receptor (Homo sapiens, UniProt P43115).
T2 construct: expressed in transfected cells; host or cells: CHO cells
T2 sequence (P43115 1-390): T1 sequence (P43115 1-390)
Put plainly: CHO cell cAMP assay; EP3 cAMP antagonist dose response (sulprostone reference), HTRF. The format is cell-based. The conditions noted are these: sulprostone 700 nM (EC80) and FSK 2 μM (EC70); read-out: CHO_cAMP IC50. In short, it runs like this: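 EP3-overexpressing CHO cells pre-incubated with test compound, then stimulated 30 min at 37 °C with FSK (2 μM, EC70) plus sulprostone (700 nM, EC80); antagonism seen as restored cAMP. cAMP measured by HTRF 665/615 ratio, converted via on-plate standard curve. IC50 from Hill fit of 11-point dosing.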
On the technique in general: Changes in cAMP serve as a functional read-out for many G protein-coupled receptors.

Regarding `O=C(C/C=C1\CCCc2cnn(Cc3ccc(Cl)cc3Cl)c21)NS(=O)(=O)c1ccc2c(c1)OCCO2` [Compound #18, (E)-3-(1-(2,4-dichlorobenzyl)-1,4,5,6-tetrahydro-7H-indazol-7-ylidene)-N-((2,3-dihydrobenzo[b][1,4]dioxin-6-yl)sulfonyl)propenamide], the Ki in assay [1] came out at 147 nM. Besides, the IC50 in assay [2] worked out at 662 nM.
In assay [1], `O=C(NC/C(F)=C1\CCc2cnn(-c3ccc(C(F)(F)F)cc3)c21)NS(=O)(=O)c1cc(Cl)c(Cl)s1` [Compound #130, (Z)-4,5-dichloro-N-((2-fluoro-2-(1-(4-(trifluoromethyl)phenyl)-4,5-dihydrocyclopenta[c]pyrazol-6(1H)-ylidene)ethyl)carbamoyl)thiophene-2-sulfonamide] returned an inhibition constant (Ki) of 40 nM. Also, the IC50 in assay [2] came out at 182 nM.
The compound `COc1ccc(Br)cc1S(=O)(=O)NC(=O)CC/C=C1\CCCc2cnn(Cc3ccc(Cl)cc3Cl)c21` [Compound #41, (E)-N-((5-bromo-2-methoxyphenyl)sulfonyl)-4-(1-(2,4-dichlorobenzyl)-1,4,5,6-tetrahydro-7H-indazol-7-ylidene)butanamide] had an inhibition constant Ki in assay [1] of 6 nM. Further, the half-inhibitory concentration (IC50) in assay [2] is 9 nM.
For `O=C(NC/C=C1\CCCc2cnn(-c3cccc(-c4ccc(F)cc4)c3)c21)NS(=O)(=O)c1cc(Cl)c(Cl)s1` [Compound #76, (E)-4,5-dichloro-N-((2-(1-(4′-fluoro-[1,1′-biphenyl]-3-yl)-1,4,5,6-tetrahydro-7H-indazol-7-ylidene)ethyl)carbamoyl)thiophene-2-sulfonamide], the inhibition constant Ki in assay [1] came to 2 nM. Further, in assay [2], the concentration for half-maximal inhibition (IC50) came out at 9 nM.
Consider `COc1ccc(F)cc1S(=O)(=O)NC(=O)NC/C(F)=C1\CCCc2cnn(Cc3ccc(Cl)cc3Cl)c21` [Compound #90, (Z)—N-((2-(1-(2,4-dichlorobenzyl)-1,4,5,6-tetrahydro-7H-indazol-7-ylidene)-2-fluoroethyl)carbamoyl)-5-fluoro-2-methoxybenzenesulfonamide], for which, in assay [1], the inhibition constant (Ki) was found to be 37 nM. Further, the IC50 in assay [2] was 272 nM.
In turn, `O=C(C/C=C1\CCCc2cnn(Cc3ccc(Cl)cc3Cl)c21)NS(=O)(=O)c1ccc(Cl)s1` [Compound #17] had a Ki in assay [1] of 19 nM. Further, the IC50 in assay [2] turned out to be 74 nM.
The compound `O=C(C/C=C1\CCCc2cnn(Cc3ccc(Cl)cc3Cl)c21)NS(=O)(=O)c1cnc2ccccc2c1` [Compound #22, (E)-3-(1-(2,4-dichlorobenzyl)-1,4,5,6-tetrahydro-7H-indazol-7-ylidene)-N-(quinolin-3-ylsulfonyl)propenamide] registered an inhibition constant Ki in assay [1] of 373 nM. Also, the 50% inhibitory concentration (IC50) in assay [2] was determined as 2900 nM.
As to `O=C(NS(=O)(=O)c1cc(Cl)c(Cl)s1)OC/C(F)=C1\CCCc2cnn(Cc3ccc(Cl)cc3Cl)c21` [Compound #34, (Z)-2-(1-(2,4-dichlorobenzyl)-1,4,5,6-tetrahydro-7H-indazol-7-ylidene)-2-fluoroethyl ((4,5-dichlorothiophen-2-yl)sulfonyl)carbamate], the Ki in assay [1] was determined as 3 nM. For the same compound, the half-maximal inhibitory concentration (IC50) in assay [2] turned out to be 11 nM.
The corresponding values for `COc1ccc(Cl)cc1S(=O)(=O)NC(=O)NC/C(F)=C1/c2c(cnn2Cc2ccc(Cl)cc2Cl)CCC1F` (stereo not drawn) [Compound #103, (E)-5-chloro-N-((2-(1-(2,4-dichlorobenzyl)-6-fluoro-1,4,5,6-tetrahydro-7H-indazol-7-ylidene)-2-fluoroethyl)carbamoyl)-2-methoxybenzenesulfonamide] are 54 nM and 228 nM.
`O=C(NC/C(F)=C1\CCCc2cnn(-c3ccc(C(F)(F)F)cc3)c21)NS(=O)(=O)c1ccc2c(c1)OCCO2` [Compound #116, (Z)—N-((2-fluoro-2-(1-(4-(trifluoromethyl)phenyl)-1,4,5,6-tetrahydro-7H-indazol-7-ylidene)ethyl)carbamoyl)-2,3-dihydrobenzo[b][1,4]dioxine-6-sulfonamide] returned a Ki in assay [1] of 4100 nM. For the same compound, in assay [2], the 50% inhibitory concentration (IC50) was greater than 20000 nM.
In assay [1], `COc1ccc(S(=O)(=O)NC(=O)NC/C=C2\CCCc3cnn(Cc4ccc(Cl)cc4Cl)c32)cc1` [Compound #13, (E)-N-((2-(1-(2,4-dichlorobenzyl)-1,4,5,6-tetrahydro-7H-indazol-7-ylidene)ethyl)carbamoyl)-4-methoxybenzenesulfonamide] came in with a Ki of 10 nM. The IC50 in assay [2] stood at 29 nM.
The corresponding values for `O=C(NC/C(F)=C1\COCc2cnn(Cc3ccc(Cl)cc3Cl)c21)NS(=O)(=O)c1ccc(Cl)cc1` [Compound #83, (E)-4-chloro-N-((2-(1-(2,4-dichlorobenzyl)-1,4-dihydropyrano[4,3-c]pyrazol-7(6H)-ylidene)-2-fluoroethyl)carbamoyl)benzenesulfonamide] are 97 nM and 266 nM.
`CN(C/C=C1\CCCc2cnn(Cc3ccc(Cl)cc3Cl)c21)C(=O)NS(=O)(=O)c1ccc(Cl)cc1` [Compound #33, (E)-4-chloro-N-((2-(1-(2,4-dichlorobenzyl)-1,4,5,6-tetrahydro-7H-indazol-7-ylidene)ethyl)(methyl)carbamoyl)benzenesulfonamide]: in assay [1], the inhibition constant (Ki) was 6 nM. The IC50 in assay [2] was 9 nM.
For the compound `O=C(NC/C=C1\CCCc2cnn(Cc3ccc(Cl)cc3Cl)c21)NS(=O)(=O)c1cc(F)cc(F)c1` [Compound #9, (E)-N-((2-(1-(2,4-dichlorobenzyl)-1,4,5,6-tetrahydro-7H-indazol-7-ylidene)ethyl)carbamoyl)-3,5-difluorobenzenesulfonamide], the affinity in assay [1] corresponds to a Ki of 6 nM. Further, the half-maximal inhibitory concentration (IC50) in assay [2] came out at 14 nM.
For the compound `CC(C)S(=O)(=O)NC(=O)CC/C=C1\CCCc2cnn(Cc3ccc(Cl)cc3Cl)c21` [Compound #69, (E)-4-(1-(2,4-dichlorobenzyl)-1,4,5,6-tetrahydro-7H-indazol-7-ylidene)-N-(isopropylsulfonyl)butanamide], the Ki in assay [1] turned out to be 179 nM. The half-inhibitory concentration (IC50) in assay [2] is 118 nM.
In the case of `O=C(NC/C=C1\CCCc2cnn(-c3cccc4ccccc34)c21)NS(=O)(=O)c1cc(Cl)c(Cl)s1` [Compound #78, (E)-4,5-dichloro-N-((2-(1-(naphthalen-1-yl)-1,4,5,6-tetrahydro-7H-indazol-7-ylidene)ethyl)carbamoyl)thiophene-2-sulfonamide], in assay [1], the Ki came to 1 nM. Further, the 50% inhibitory concentration (IC50) in assay [2] came to 10 nM.
The corresponding values for `COc1ccc(Cl)cc1S(=O)(=O)NC(=O)NC/C=C1\CCCc2cnn(Cc3ccc(Cl)cc3Cl)c21` [Compound #43, (E)-5-chloro-N-((2-(1-(2,4-dichlorobenzyl)-1,4,5,6-tetrahydro-7H-indazol-7-ylidene)ethyl)carbamoyl)-2-methoxybenzenesulfonamide] are 3 nM and 8 nM.
In assay [1], `COc1ccc(-n2ncc3c2/C(=C/CNC(=O)NS(=O)(=O)c2ccc(Cl)cc2)CCC3)cn1` [Compound #105, (E)-4-chloro-N-((2-(1-(6-methoxypyridin-3-yl)-1,4,5,6-tetrahydro-7H-indazol-7-ylidene)ethyl)carbamoyl)benzenesulfonamide] showed a Ki of 238 nM. Besides, in assay [2], the IC50 is 294 nM.
The compound `O=C(NC/C=C1\CCCc2cnn(-c3ccc(Cl)cc3Cl)c21)NS(=O)(=O)c1cc(Cl)c(Cl)s1` [Compound #84, (E)-4,5-dichloro-N-((2-(1-(2,4-dichlorophenyl)-1,4,5,6-tetrahydro-7H-indazol-7-ylidene)ethyl)carbamoyl)thiophene-2-sulfonamide] registered a Ki in assay [1] of 1 nM. The IC50 in assay [2] stood at 5 nM.
In assay [1], `O=C(NS(=O)(=O)c1ccc(Cl)cc1)OC/C(F)=C1/COCc2cnn(-c3cccc(C(F)(F)F)c3)c21` [compound 108] came in with a Ki greater than 10000 nM. Also, the IC50 in assay [2] is greater than 20000 nM.
Compound `O=C(NS(=O)(=O)c1ccc(Cl)cc1)OC/C=C1\CCCc2cnn(-c3ncccn3)c21` [compound 95] yielded a Ki in assay [1] greater than 10000 nM. In addition, the half-inhibitory concentration (IC50) in assay [2] was greater than 20000 nM.
The compound `O=C(NC/C(F)=C1/c2c(cnn2Cc2ccc(Cl)cc2Cl)CCC1F)NS(=O)(=O)c1ccc(Cl)cc1` (stereo not drawn) [Compound #101, (E)-4-chloro-N-((2-(1-(2,4-dichlorobenzyl)-6-fluoro-1,4,5,6-tetrahydro-7H-indazol-7-ylidene)-2-fluoroethyl)carbamoyl)benzenesulfonamide] came in with a Ki in assay [1] of 53 nM. Further, in assay [2], the IC50 was determined as 144 nM.
On to `Cc1nc(C)c(S(=O)(=O)NC(=O)NC/C=C2\CCCc3cnn(Cc4ccc(Cl)cc4Cl)c32)s1` [Compound #150, (E)-N-((2-(1-(2,4-dichlorobenzyl)-1,4,5,6-tetrahydro-7H-indazol-7-ylidene)ethyl)carbamoyl)-2,4-dimethylthiazole-5-sulfonamide], for which the affinity in assay [1] corresponds to a Ki of 2 nM. In addition, the IC50 in assay [2] came out at 4 nM.
`COc1ccc(S(=O)(=O)NC(=O)C/C=C2\CCCc3cnn(Cc4ccc(Cl)cc4Cl)c32)cc1` [Compound #23, (E)-3-(1-(2,4-dichlorobenzyl)-1,4,5,6-tetrahydro-7H-indazol-7-ylidene)-N-((4-methoxyphenyl)sulfonyl)propenamide] yielded an inhibition constant Ki in assay [1] of 256 nM. In addition, the IC50 in assay [2] worked out at 453 nM.

What is called Ki is a measure of affinity in units of concentration, obtained from inhibition or displacement. Higher therefore signals weaker binding. What is called IC50 is the midpoint of a concentration-inhibition curve.

Values taken from patent US20210253562A1, “ACYLSUFONAMIDE COMPOUNDS USEFUL AS EP3 RECEPTOR ANTAGONISTS” (Janssen Pharmaceutica NV, priority 2018, published 2021).
